Experimental data: patent US8968453B2, “Anthrapyridone sulfonic acid compounds and their preparation methods and applications” (Zhuhai Ninestar Management Co., Ltd., priority 2011, dated 2015)

Columns and labels:
Type in all cases: physicochemical
[1] = Printed images light resistance test with xenon lamp; conditions: grade of color difference ΔE; ink with 6 portions dye on glossy photo paper; xenon lamp 0.36 W/m^2, 50 h, 60% RH, 24° C.
Text: (§1) Prepare the ink composition of Table 8 with the product obtained in Embodiment 1-11 as the coloring agent, and filter the ink composition with 0.45 μm membrane filter to obtain the magenta ink composition of the present invention. Add ion exchange water and triethanolamine to adjust the pH value of the ink composition to 8-10 and the weight to 100 portions. By the same methods, prepare ink compositions with control sulfonic-group-free anthrone dyes Dye1 and Dye2, hydrolytic derivatives of commercial dye C.I. reactive red 180 (reactive red 180 for short) and C.I. direct red 227 for comparison.
(§2) Use an ink-jet printer (Epson 270 manufactured by Epson Company), glossy photo paper (Epson) and the above described ink compositions for ink-jet printing.
(1) Printed Images Light Resistance Test with Xenon Lamp
Irradiate the printed glossy photo paper manufactured by Canon and Epson with Xenon-lamp Weathering Test Chamber ZG-P (manufactured by China Surui Company) at 60% RH and 24° C. with illuminance of 0.36 W/m^2 for 50 h to test the color difference (ΔE) before and after the test. The color difference (ΔE) is calculated from the differences of values of L*, a*, b* before and after the test in the above described color measurement system (Unterlab) by the followings formula: ΔE=((difference of L*)^2+(difference of a*)^2+(difference of b*)^2)^1/2.
Three grades will be divided for the evaluation based on the following benchmark: • ΔE<10 ∘ • ΔE<20 Δ • ΔE>20 x

[2] = Gas (ozone) resistance of the printed images; conditions: grade of color difference ΔE; ink with 6 portions dye on glossy photo paper; 40 ppm ozone, 60% RH, 24° C.
Text: Prepare the ink composition of Table 8 with the product obtained in Embodiment 1-11 as the coloring agent, and filter the ink composition with 0.45 μm membrane filter to obtain the magenta ink composition of the present invention. Add ion exchange water and triethanolamine to adjust the pH value of the ink composition to 8-10 and the weight to 100 portions. By the same methods, prepare ink compositions with control sulfonic-group-free anthrone dyes Dye1 and Dye2, hydrolytic derivatives of commercial dye C.I. reactive red 180 (reactive red 180 for short) and C.I. direct red 227 for comparison. Use an ink-jet printer (Epson 270 manufactured by Epson Company), glossy photo paper (Epson) and the above described ink compositions for ink-jet printing. (2) Gas Resistance of the Printed Images Place the printed images in the Ozone Weathering Test Chamber (manufactured by China Surui Company) at 60% RH, 24° C. and 40 ppm ozone. Calculated the color difference (ΔE) before and after the test by the same method as described in (1) above and evaluate it in 3 grades based on the following benchmark: • ΔE<10 ∘ • ΔE<20 Δ • ΔE>20 x

[3] = Wet resistance of the printed images; design: key: No bleeding ∘; Slight bleeding Δ; Notable bleeding x; conditions: bleeding judged by bare eyes; 50° C., 90% RH, 168 h
Text: as §1, §2
(3) Wet Resistance of the Printed Images
Place the printed images in the Constant Temperature and Humidity Chamber (manufactured by China Surui Company) at 50° C. and 90% RH for 168 h; judge the bleeding of the ink by bare eyes before and after the test and evaluate it in 3 grades based on the following benchmark: • No bleeding ∘ • Slight bleeding Δ • Notable bleeding x

[4] = Evaluation of solubility and solution stability; design: key: No precipitation ∘; Slight precipitation Δ; Notable x; conditions: 20 portions dye, 70 portions water, 10 portions ethylene glycol; 50° C. 7 d, then 0° C. 7 d; precipitation on filtering
Description: (D) Evaluation of Solubility and Solution Stability
Heat and dissolve the system of 20 portions of dyes, 70 portions of water and 10 portions of ethylene glycol; after the solution cools down, store it airtight at a constant temperature of 50° C. for 7 d; cool it down and store it at 0° C. for 7 d; filter the solution and evaluate it in 3 grades based on the following benchmark: • No precipitation ∘ • Slight precipitation Δ • Notable x

SMILES | UV resistance of printed images [1] | Ozone resistance of printed images [2] | Water resistance of printed images [3] | Solubility and stability of dyes in aqueous solvent system [4]
O=C(c1cccc(S(=O)(=O)O)c1)c1c2c3c(c(Nc4ccc(S(=O)(=O)O)cc4S(=O)(=O)O)cc(S(=O)(=O)O)c3[nH]c1=O)C(=O)c1ccccc1-2 [Dye C1] | ∘ (ΔE<10 ∘) | ∘ (ΔE<10 ∘) | ∘ | ∘
Cc1ccc(S(=O)(=O)Nc2cc(Nc3cc(S(=O)(=O)O)c4[nH]c(=O)c(C(=O)c5cccc(S(=O)(=O)O)c5)c5c4c3C(=O)c3ccccc3-5)c(S(=O)(=O)O)cc2S(=O)(=O)O)cc1 [Dye D4] | ∘ (ΔE<10 ∘) | Δ (ΔE<20 Δ) | ∘ | Δ
CC(=O)Nc1cc(Nc2cc(S(=O)(=O)O)c3[nH]c(=O)c(C(=O)c4cccc(S(=O)(=O)O)c4)c4c3c2C(=O)c2ccccc2-4)c(S(=O)(=O)O)cc1S(=O)(=O)O [Dye C5] | ∘ (ΔE<10 ∘) | ∘ (ΔE<10 ∘) | ∘ | ∘
CN(c1nc(Oc2cc(C(=O)O)cc(C(=O)O)c2)nc(N(CCO)CCO)n1)c1cc(S(=O)(=O)O)c(Nc2cc(S(=O)(=O)O)c3[nH]c(=O)c(C(=O)c4cccc(S(=O)(=O)O)c4)c4c3c2C(=O)c2ccccc2-4)cc1S(=O)(=O)O [Dye D3] | ∘ (ΔE<10 ∘) | Δ (ΔE<20 Δ) | ∘ | ∘
CCN(CC)CCS(=O)(=O)c1ccc(S(=O)(=O)O)c(Nc2cc(S(=O)(=O)O)c3[nH]c(=O)c(C(=O)c4cccc(S(=O)(=O)O)c4)c4c3c2C(=O)c2ccccc2-4)c1 [Dye B2] | ∘ (ΔE<10 ∘) | ∘ (ΔE<10 ∘) | ∘ | ∘
CC(=O)Nc1cc(Nc2ccc3[nH]c(=O)c(C(=O)c4cccc(S(=O)(=O)O)c4)c4c3c2C(=O)c2ccccc2-4)c(S(=O)(=O)O)cc1S(=O)(=O)O [Dye2, reference compound] | Δ (ΔE<20 Δ) | Δ (ΔE<20 Δ) | ∘ | Δ
O=C(c1cccc(S(=O)(=O)O)c1)c1c2c3c(c(Nc4cc(S(=O)(=O)CCSCCCS(=O)(=O)O)ccc4S(=O)(=O)O)cc(S(=O)(=O)O)c3[nH]c1=O)C(=O)c1ccccc1-2 [Dye B1] | ∘ (ΔE<10 ∘) | ∘ (ΔE<10 ∘) | ∘ | ∘
O=C(c1cccc(S(=O)(=O)O)c1)c1c2c3c(c(Nc4cc(S(=O)(=O)CCSCCCS(=O)(=O)O)c(S(=O)(=O)O)cc4S(=O)(=O)O)cc(S(=O)(=O)O)c3[nH]c1=O)C(=O)c1ccccc1-2 [Dye B3] | ∘ (ΔE<10 ∘) | ∘ (ΔE<10 ∘) | ∘ | ∘
CCN(CC)CCS(=O)(=O)c1ccc(S(=O)(=O)O)c(Nc2ccc3[nH]c(=O)c(C(=O)c4cccc(S(=O)(=O)O)c4)c4c3c2C(=O)c2ccccc2-4)c1 [Dye1, reference compound] | Δ (ΔE<20 Δ) | Δ (ΔE<20 Δ) | ∘ | Δ
O=C(O)c1cc(Oc2nc(Nc3cc(Nc4cc(S(=O)(=O)O)c5[nH]c(=O)c(C(=O)c6cccc(S(=O)(=O)O)c6)c6c5c4C(=O)c4ccccc4-6)c(S(=O)(=O)O)cc3S(=O)(=O)O)nc(Oc3cc(C(=O)O)cc(C(=O)O)c3)n2)cc(C(=O)O)c1 [Dye D1] | ∘ (ΔE<10 ∘) | ∘ (ΔE<10 ∘) | ∘ | ∘
CCN(CC)CCS(=O)(=O)c1cc(Nc2cc(S(=O)(=O)O)c3[nH]c(=O)c(C(=O)c4cccc(S(=O)(=O)O)c4)c4c3c2C(=O)c2ccccc2-4)c(S(=O)(=O)O)cc1S(=O)(=O)O [Dye B4] | ∘ (ΔE<10 ∘) | ∘ (ΔE<10 ∘) | ∘ | ∘
O=S(=O)([O-])c1cc(Nc2nc(Nc3ccc(/C=C/c4ccc(Nc5nc(Nc6cc(S(=O)(=O)[O-])cc7cc(S(=O)(=O)[O-])c(N=Nc8ccccc8)c(O)c67)nc(N6CCOCC6)n5)cc4S(=O)(=O)[O-])c(S(=O)(=O)[O-])c3)nc(N3CCOCC3)n2)c2c(O)c(N=Nc3ccccc3)c(S(=O)(=O)[O-])cc2c1.[Na+].[Na+].[Na+].[Na+].[Na+].[Na+] [C.I. direct red 227, reference compound] | x (ΔE>20 x) | x (ΔE>20 x) | Δ | Δ
O=C(O)c1cc(Oc2nc(Nc3cc(Nc4cc(S(=O)(=O)O)c5[nH]c(=O)c(C(=O)c6cccc(S(=O)(=O)O)c6)c6c5c4C(=O)c4ccccc4-6)c(S(=O)(=O)O)cc3S(=O)(=O)O)nc(N(CCO)CCO)n2)cc(C(=O)O)c1 [Dye D2] | ∘ (ΔE<10 ∘) | ∘ (ΔE<10 ∘) | ∘ | ∘
